Results on one compound are retold here after publication PMC11249626, “Fluorophore-Labeled Pyrrolones Targeting the Intracellular Allosteric Binding Site of the Chemokine Receptor CCR1” (ACS Pharmacology & Translational Science, 2024).

This assay deals with T1, CXCR1 (Homo sapiens, UniProt P25024).
T1 construct: host or cells: HEK293T, transient
T1 sequence (P25024 1-350): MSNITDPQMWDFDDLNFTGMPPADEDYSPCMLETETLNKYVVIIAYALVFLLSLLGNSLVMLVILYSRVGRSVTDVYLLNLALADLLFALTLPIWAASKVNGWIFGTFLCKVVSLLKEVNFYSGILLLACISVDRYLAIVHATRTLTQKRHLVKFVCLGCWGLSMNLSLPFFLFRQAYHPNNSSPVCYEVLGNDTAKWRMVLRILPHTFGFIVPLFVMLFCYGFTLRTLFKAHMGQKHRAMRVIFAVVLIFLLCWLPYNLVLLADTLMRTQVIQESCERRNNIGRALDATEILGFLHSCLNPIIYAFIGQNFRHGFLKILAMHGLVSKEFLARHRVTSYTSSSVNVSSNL
Put plainly: Membrane-based NanoBRET saturation binding assay, CXCR1_Nluc membranes. The method, then:
Emission spectra of Nluc -labeled CCR1 (CCR1_Nluc) protein: The emission spectra of CCR1_Nluc has already been reported by Toy et al.1 For a confirmation of the reported data with new CCR1_Nluc membrane batches, furimazine (Promega, Mannheim, Germany 1:2000) was added to the membrane preparations (2 µg protein/well). […]
NanoBRET binding assays: Membrane-based NanoBRET saturation assay: For the establishment of our NanoBRET binding assay, we referred to recently published protocols. […]
Then, 20 µL of the membrane preparations diluted in assay buffer (3 µg total protein/well) were added and the plates were incubated for 90 min at 37 °C. Subsequently, 5 µL of a furimazine solution (Promega, Mannheim, Germany, final assay dilution: 1:5,000) were added to each well (final assay volume: 35 µL) before measuring luminescence with a CLARIOstar microplate reader using 620/10 nm and 475/30 nm emission filters after 5 min of incubation in the dark. Bioluminescence resonance energy transfer (BRET) was determined as the ratio of acceptor fluorescence and donor luminescence. […] Specific binding signals were calculated as a difference of total and non-specific binding. If required, netBRET values were calculated as the difference between total BRET values and the values obtained in the absence of a fluorescent ligand. […]

As to `CN(C)c1ccc2c(-c3cc(C(=O)NCCOCCOCc4cn(CCCC(=O)C5=C(O)C(=O)N(c6ccc(Br)cc6F)C5C5CCCCC5)nn4)ccc3C(=O)[O-])c3ccc(=[N+](C)C)cc-3oc2c1` (stereo not shown) [compound 12], the Kd came to 12.3 ± 0.3 µM.
